Test results published in the supplement of paper PMC11208160.

Test: recombinant barcode read abundance after kanamycin selection (control-corrected) (log10(CPM+1)); higher = more efficient recombination; sequences stand for … in AGTGCAGAGAAAATCGGCCAGTTTTCTCTGCCTGCAGTCCGCATGCCGT…AGATTTATGCAGCGGACTGCCTTTCTCCCAAAGTGATAAACCGGACAGTATCATGGACCGGTTTTCCCGGTAATCCGTATTTGCAAGGTTGGTTTCACT; site = the 11-nt target
Procedure, shortened: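 Recombination efficiency comes from barcode counts at recombinant junctions, converted to counts per million, averaged and corrected against the control. Values appear as log10(CPM+1). They were obtained from a pooled E. coli screen in which each oligo paired a target with an IS621 bridge RNA target-binding loop, and cells were plated in duplicate on chloramphenicol/ampicillin LB agar or on chloramphenicol/ampicillin/kanamycin with 0.1 mM IPTG.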
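Note: IS621 recombinase and bridge RNA in Escherichia coli cells.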

Sequence	recombinant barcode read abundance (log10)
TACATTCCTTGGGTTCTAACCTGTTGCCT (site CACATTCCTAG)	0.0666
CTCATAACTTGGGTTCTAACCTGTTGCCG (site CTCATAACTCG)	0.328
TAGGCGCCTTGGGTTCTAACCTGTTGCTT (site TAGGCGCCTAC)	0.263
GGCACGGCTTGGGTTCTAACCTGTTGCCT (site GGCACTGCTAG)	0.11
TCGCTAGCTTGGGTTCTAACCTGTTGCCT (site ACGCTAGCTAG)	0.0632
TCCCAGTCTTGGGTTCTAACCTGTTGCAT (site TCCCAGTCTAC)	0.104
TAGAATCCTTGGGTTCTAACCTGTTGCAT (site TAGAATCCTTT)	0.241
TGAGTGGCTTGGGTTCTAACCTGTTGCCT (site TGAGCGGCTAG)	0.108
GTCCTATCTTGGGTTCTAACCTGTTGCAC (site CGAGGCCCTAA)	0.0371
CTCGTGACTTGGGTTCTAACCTGTTGCCT (site CTCGTAACTAG)	0.682
CTACGTACTTGGGTTCTAACCTGTTGCCT (site TTACGTACTAG)	0.0415
TTAGTGCCTTGGGTTCTAACCTGTTGCCT (site TTAGTTCCTAG)	0.0759
CTCCAACCTTGGGTTCTAACCTGTTGCCT (site CGCCCACCTAG)	0.144
TAGCATACTTGGGTTCTAACCTGTTGCCG (site TAGCATACTCG)	0.861
AATTGTCCTTGGGTTCTAACCTGTTGCCT (site AATTGTCCTAT)	0.0177
GATTTCTCTTGGGTTCTAACCTGTTGCCT (site CATTTCTCTAG)	0.0742
ATAAGCTCTTGGGTTCTAACCTGTTGCCT (site GTAAGCTCTAG)	0.119
CTAATGCCTTGGGTTCTAACCTGTTGCAT (site CTAATGACTGT)	0.0624
GATTTCTCTTGGGTTCTAACCTGTTGCCT (site GATTTCTCTAG)	0.228
TAGGCTCCTTGGGTTCTAACCTGTTGCAT (site TAGGCTCCTCT)	0.0701
CAAACACCTTGGGTTCTAACCTGTTGCCT (site CAAACAGCTAG)	0.682
ACAAGAGCTTGGGTTCTAACCTGTTGCCT (site ACAAGAGCTAG)	1.07

Sequence	recombinant barcode read abundance (log10)
ACTAACACTTGGGTTCTAACCTGTTGCCT (site ACTAACACTAG)	1.23
ACTGATTCTTGGGTTCTAACCTGTTGCCT (site ACTGATCCTAG)	0.0546
ACTTGACCTTGGGTTCTAACCTGTTGCAG (site ATTTGACCTCG)	0.0223
ACTCTGGCTTGGGTTCTAACCTGTTGCCT (site ACCCTGGCTAG)	0.256
CTAGATTCTTGGGTTCTAACCTGTTGCCT (site CCAGATTCTAG)	0.116
CACTTGTCTTGGGTTCTAACCTGTTGCCT (site CACTTGCCTAG)	0.0539
TATCGCACTTGGGTTCTAACCTGTTGCCT (site TATGGGACTAG)	0.0986
GAGTTGTCTTGGGTTCTAACCTGTTGCGG (site CTCGCCACTAG)	0.0798
AACACTGCTTGGGTTCTAACCTGTTGCCT (site AACAGTGCTAG)	0
TGAGCGGCTTGGGTTCTAACCTGTTGCCT (site TGAGGGGCTAG)	0.00469
TCCACATCTTGGGTTCTAACCTGTTGCCT (site TCCACAACTAG)	0.0262
CACTTACCTTGGGTTCTAACCTGTTGCCT (site CACTTACCTAG)	0.742
CTGATCCCTTGGGTTCTAACCTGTTGCGG (site CTGATCCCTCC)	1.05
CGGACTGCTTGGGTTCTAACCTGTTGCCT (site ACCTGACCTCC)	0.0853
TGCCAGCCTTGGGTTCTAACCTGTTGCCT (site TGCCAGACTAT)	0.114
GACACGCCTTGGGTTCTAACCTGTTGCGT (site GACACGCCTAA)	0.205
CGCCGCCCTTGGGTTCTAACCTGTTGCCT (site CGCCGCCCTAG)	0.18
TACTGCTCTTGGGTTCTAACCTGTTGCTT (site TACCGCTCTAA)	0.213
TCAGGCCCTTGGGTTCTAACCTGTTGCCT (site TAAGGCCCTAA)	0.0837
CACGAGTCTTGGGTTCTAACCTGTTGCCT (site CACGAGCCTAG)	0.24
CTAGAGTCTTGGGTTCTAACCTGTTGCTT (site CTAGAGTCTAA)	2.66
TGTAGGACTTGGGTTCTAACCTGTTGCCT (site AGTAGGACTAG)	0.0549

Sequence	recombinant barcode read abundance (log10)
AAAATACCTTGGGTTCTAACCTGTTGCGG (site AAAATACCTCC)	1.68
ATGCCTCCTTGGGTTCTAACCTGTTGCTT (site GAAGGAGCTCT)	0.07
CTCCAACCTTGGGTTCTAACCTGTTGCGG (site CTCCAGCCTCC)	0.461
GGCGGCTCTTGGGTTCTAACCTGTTGCCT (site GGCGGCTCTAG)	1.42
GAGCTACCTTGGGTTCTAACCTGTTGCCC (site GAGCTACCTCG)	0.199
TATTCTACTTGGGTTCTAACCTGTTGCGA (site TATTCTACTTC)	0.0707
GTGTCAACTTGGGTTCTAACCTGTTGCCT (site GTGTCATCTAG)	0.0225
TCAGGAGCTTGGGTTCTAACCTGTTGCGG (site TCAGGAGCTCT)	1.85
AACAATACTTGGGTTCTAACCTGTTGCCT (site AACAATACTAG)	0.438
ATGCCCTCTTGGGTTCTAACCTGTTGCCT (site ATGACCTCTAG)	0.688
AGCCTGTCTTGGGTTCTAACCTGTTGCCT (site AGCCTGTCTAG)	1.36
CTTGGTTCTTGGGTTCTAACCTGTTGCTT (site CTGGGTCCTAA)	0.0304
CACTTAACTTGGGTTCTAACCTGTTGCCT (site CACTTATCTAG)	0
GCTGGGTCTTGGGTTCTAACCTGTTGCTT (site GCAGGGTCTAA)	0.466
CGTCCACCTTGGGTTCTAACCTGTTGCCT (site GGTCCACCTAG)	0.1
GCCAGGGCTTGGGTTCTAACCTGTTGCCG (site GCCTGGGCTCG)	0.0195
ATATACTCTTGGGTTCTAACCTGTTGCCG (site ATCTACTCTAG)	0.0335
GGACGTCCTTGGGTTCTAACCTGTTGCCT (site GGACGGCCTAG)	0.0468
CAGGGGCCTTGGGTTCTAACCTGTTGCCT (site CAGCGGCCTAG)	0.187
GTACAATCTTGGGTTCTAACCTGTTGCAG (site GTACAATCTCT)	0.632
CGTATGTCTTGGGTTCTAACCTGTTGCCT (site AGTATGTCTAG)	0.0814
AGTTACACTTGGGTTCTAACCTGTTGCCT (site AGTTACACTAG)	0.637

Sequence	recombinant barcode read abundance (log10)
ATAAGTCCTTGGGTTCTAACCTGTTGCCA (site GTAAGTACTTG)	0.0629
TCAAAGGCTTGGGTTCTAACCTGTTGCCT (site TCCAAGGCTAG)	0.238
GTTCAGACTTGGGTTCTAACCTGTTGCTT (site GTTCAGACTAA)	1.06
AGTCTCCCTTGGGTTCTAACCTGTTGCCT (site AGACTCCCTAG)	0.372
TATTCTCCTTGGGTTCTAACCTGTTGCAT (site TATTCTCCTAG)	0.00827
CACGCGCCTTGGGTTCTAACCTGTTGCGG (site CACGCGCCTCC)	1.84
TCCTATTCTTGGGTTCTAACCTGTTGCGA (site TACTATGCTTC)	0.141
TGAAGCCCTTGGGTTCTAACCTGTTGCTT (site TGAAGCCCTAA)	0.321
TAGAACTCTTGGGTTCTAACCTGTTGCCA (site TAGAACTCTCG)	0.23
ATCAGGTCTTGGGTTCTAACCTGTTGCCT (site ATCAGGTCTAG)	0.431
TGAGTGGCTTGGGTTCTAACCTGTTGCCT (site TGAGAGGCTAG)	0.129
AATTCGGCTTGGGTTCTAACCTGTTGCCT (site ACTGCGGCTAG)	0.407
CGTATGTCTTGGGTTCTAACCTGTTGCCT (site GGTATGTCTAG)	0.0736
GTCTGCCCTTGGGTTCTAACCTGTTGCCT (site GCCTGCCCTAG)	0.191
GGGGATCCTTGGGTTCTAACCTGTTGCGA (site GGGGATCCTTC)	2.06
CTACGTACTTGGGTTCTAACCTGTTGCTG (site CTACGCACTCA)	0.138
CTTCGTACTTGGGTTCTAACCTGTTGCCA (site CTCCGTACTCG)	0.126
TAGACTGCTTGGGTTCTAACCTGTTGCCT (site TAGACTGCTAG)	1.04
TAGACTACTTGGGTTCTAACCTGTTGCTT (site TAGACTACTTA)	0.137
CATAGCCCTTGGGTTCTAACCTGTTGCAT (site CATAGACCTAT)	0.176
